For assay [1], the target named is T1, GLP-1 receptor (Homo sapiens, UniProt P43220).
T1 construct: expressed in transfected cells; host or cells: HEK293
Briefly: cAMP induction at the GLP-1 receptor (agonist activity), firefly luciferase reporter assay in HEK293 cells. Type of assay: cell-based. The conditions noted are these: for GLP-1R relative activity: relative to standard. The source says:
(§1) HEK293 cells co-transfected with the receptor and luciferase gene linked to a cAMP responsive element were employed for the bioassay.
(§2) All EC50s and IC50s are reported in the following examples in nM, unless indicated otherwise.

Assay [2] concerns the target T2, glucagon receptor (Homo sapiens, UniProt P47871). Description: cell-based. The conditions noted are these: Glu ICso (nM), Table A; Glu = glucagon.
Excerpt: as §1, §2

In assay [3] the target is T3, GIP receptor (Homo sapiens, UniProt P48546).
T3 construct: expressed in transfected cells; host or cells: HEK293
T3 sequence (P48546 22-466): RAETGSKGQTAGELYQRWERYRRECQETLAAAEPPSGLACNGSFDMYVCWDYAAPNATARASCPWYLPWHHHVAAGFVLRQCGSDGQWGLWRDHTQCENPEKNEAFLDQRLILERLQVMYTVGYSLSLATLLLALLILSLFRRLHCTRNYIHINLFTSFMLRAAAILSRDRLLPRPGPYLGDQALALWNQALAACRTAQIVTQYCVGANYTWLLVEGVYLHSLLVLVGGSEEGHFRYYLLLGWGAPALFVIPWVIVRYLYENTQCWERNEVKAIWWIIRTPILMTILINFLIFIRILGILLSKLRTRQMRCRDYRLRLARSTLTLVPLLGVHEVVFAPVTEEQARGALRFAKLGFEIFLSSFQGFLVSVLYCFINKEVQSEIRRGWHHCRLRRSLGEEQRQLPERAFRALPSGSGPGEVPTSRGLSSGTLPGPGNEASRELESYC
Briefly: cAMP induction at the GIP receptor (agonist activity), luciferase reporter assay in HEK293 cells. Type of assay: cell-based. The conditions noted are these: Table 4; for EC50: read-out: GIPR EC50; for GIPR relative activity: relative to standard.
Excerpt: as §1, §2

Assay [4] concerns the target T2, glucagon receptor. Description: cAMP induction at the glucagon receptor (agonist activity), luciferase reporter assay in HEK293 cells. Type of assay: cell-based. Also noted: expressed in transfected cells; host or cells: HEK293. The conditions noted are these: Table 4; for EC50: read-out: GR EC50; for GR relative activity: relative to standard.
Excerpt: as §1, §2
(Reporter assays use an easily measured gene product as a stand-in for the process of interest.)

Like-named read-outs stand apart in the source and are kept apart here. Peptide text beside a SMILES is read from it.

3 compounds from patent publication US20140107021A1 (priority 2010, published 2014) can be followed below.

T2 sequence (P47871 26-477): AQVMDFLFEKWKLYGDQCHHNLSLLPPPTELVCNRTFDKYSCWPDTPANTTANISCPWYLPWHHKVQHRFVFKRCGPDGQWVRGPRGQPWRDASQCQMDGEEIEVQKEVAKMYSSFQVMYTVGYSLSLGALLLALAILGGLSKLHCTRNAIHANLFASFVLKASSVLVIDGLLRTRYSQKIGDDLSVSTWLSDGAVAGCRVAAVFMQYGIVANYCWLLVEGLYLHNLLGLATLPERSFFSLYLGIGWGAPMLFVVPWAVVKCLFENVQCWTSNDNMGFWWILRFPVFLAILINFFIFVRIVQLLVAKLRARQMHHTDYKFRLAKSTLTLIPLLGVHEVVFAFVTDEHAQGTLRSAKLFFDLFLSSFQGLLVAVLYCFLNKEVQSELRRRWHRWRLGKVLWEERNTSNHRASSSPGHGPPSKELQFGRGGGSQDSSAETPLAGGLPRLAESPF
T1 sequence (P43220 24-463): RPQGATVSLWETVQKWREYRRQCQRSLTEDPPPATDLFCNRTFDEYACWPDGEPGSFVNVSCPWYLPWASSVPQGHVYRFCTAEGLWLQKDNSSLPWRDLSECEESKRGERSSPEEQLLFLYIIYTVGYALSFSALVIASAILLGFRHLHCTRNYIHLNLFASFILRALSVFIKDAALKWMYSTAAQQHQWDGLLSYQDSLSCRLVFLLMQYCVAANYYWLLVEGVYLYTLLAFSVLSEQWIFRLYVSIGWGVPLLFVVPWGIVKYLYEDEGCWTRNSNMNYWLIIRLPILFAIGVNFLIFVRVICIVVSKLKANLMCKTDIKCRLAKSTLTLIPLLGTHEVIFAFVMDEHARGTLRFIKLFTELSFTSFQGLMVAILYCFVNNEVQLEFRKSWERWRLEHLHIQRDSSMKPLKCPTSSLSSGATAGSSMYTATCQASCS

On to `CSCC[C@H](NC(=O)[C@H](CC(C)C)NC(=O)[C@H](Cc1c[nH]c2ccccc12)NC(=O)[C@H](CCC(N)=O)NC(=O)[C@@H](NC(=O)[C@H](Cc1ccccc1)NC(=O)[C@H](CC(=O)O)NC(=O)[C@H](CCC(N)=O)NC(=O)[C@H](C)NC(=O)[C@H](CCCNC(=N)N)NC(=O)[C@H](CCCNC(=N)N)NC(=O)[C@@H]1CCC(=O)NCCCC[C@H](NC(=O)[C@H](CO)NC(=O)[C@H](Cc2ccc(O)cc2)NC(=O)[C@H](CCC(=O)O)NC(=O)[C@H](CO)NC(=O)[C@@H](NC(=O)[C@@H](O)Cc2ccccc2)[C@@H](C)O)C(=O)N[C@@H](Cc2ccc(O)cc2)C(=O)N[C@@H](CC(C)C)C(=O)N[C@@H](CC(=O)O)C(=O)N1)C(C)C)C(=O)N[C@@H](CC(N)=O)C(=O)N[C@H](C(=O)NCC(=O)N1CCC[C@H]1C(=O)N[C@@H](CO)C(=O)N[C@@H](CO)C(=O)NCC(=O)N[C@@H](C)C(=O)N1CCC[C@H]1C(=O)N1CCC[C@H]1C(=O)N1CCC[C@H]1C(=O)N[C@@H](CO)C(N)=O)[C@@H](C)O` [[PLA6, E9, K12E16(Lactam)] (HELM PEPTIDE1{[O=C([C@@H](O)Cc1ccccc1)[*:2]].T.S.E.Y.S.K.Y.L.D.E.R.R.A.Q.D.F.V.Q.W.L.M.N.T.G.P.S.S.G.A.P.P.P.S.[am]}$PEPTIDE1,PEPTIDE1,7:R3-11:R3$$$V2.0), for which the EC50 in assay [1] (GLP-1 EC50 (nM), Table C) was 6 nM; in assay [1] (GLP-1 ECso (nM), Table A), 6 nM. In assay [2], this compound had an IC50 of 72 nM.

Regarding `CC[C@H](C)[C@H](NC(=O)[C@H](CO)NC(=O)[C@H](Cc1ccc(O)cc1)NC(=O)[C@H](CC(=O)O)NC(=O)[C@H](CO)NC(=O)[C@@H](NC(=O)[C@H](Cc1ccccc1)NC(=O)[C@@H](NC(=O)CNC(=O)[C@H](CCC(=O)O)NC(=O)C(C)(C)NC(=O)[C@@H](N)Cc1ccc(O)cc1)[C@@H](C)O)[C@@H](C)O)C(=O)N[C@@H](Cc1ccc(O)cc1)C(=O)N[C@@H](CC(C)C)C(=O)N[C@@H](CC(=O)O)C(=O)N[C@@H](CCCCN)C(=O)N[C@@H](CCC(N)=O)C(=O)N[C@@H](C)C(=O)N[C@@H](C)C(=O)NC(C)(C)C(=O)N[C@@H](CCC(=O)O)C(=O)N[C@@H](Cc1ccccc1)C(=O)N[C@H](C(=O)N[C@@H](CC(N)=O)C(=O)N[C@@H](Cc1c[nH]c2ccccc12)C(=O)N[C@@H](CC(C)C)C(=O)N[C@@H](CC(C)C)C(=O)N[C@@H](C)C(=O)NCC(=O)NCC(=O)N1CCC[C@H]1C(=O)N[C@@H](CO)C(=O)N[C@@H](CO)C(=O)NCC(=O)N[C@@H](C)C(=O)N1CCC[C@H]1C(=O)N1CCC[C@H]1C(=O)N1CCC[C@H]1C(=O)N[C@@H](CO)C(N)=O)C(C)C` [mt-395], the EC50 in assay [1] (Table 4, read-out: GLP-1R EC50) is 0.0076 nM. The GLP-1R relative activity in assay [1] (Table 4) was 321.55%. Also, in assay [3], the concentration giving a half-maximal response (EC50) stood at 0.0025 nM and the GIPR relative activity was 537.45%. In addition, in assay [4], the EC50 was 3.41 nM and the GR relative activity is 0.87%.

For `CC[C@H](C)[C@H](NC(=O)[C@H](CO)NC(=O)[C@H](Cc1ccc(O)cc1)NC(=O)[C@H](CC(=O)O)NC(=O)[C@H](CO)NC(=O)[C@@H](NC(=O)[C@H](Cc1ccccc1)NC(=O)[C@@H](NC(=O)CNC(=O)[C@H](CCC(=O)O)NC(=O)C(C)(C)NC(=O)[C@@H](N)Cc1ccc(O)cc1)[C@@H](C)O)[C@@H](C)O)C(=O)N[C@@H](Cc1ccc(O)cc1)C(=O)N[C@@H](CC(C)C)C(=O)N[C@@H](CC(=O)O)C(=O)N[C@@H](CCCCN)C(=O)N[C@@H](CCC(N)=O)C(=O)N[C@@H](C)C(=O)N[C@@H](C)C(=O)NC(C)(C)C(=O)N[C@@H](CCC(=O)O)C(=O)N[C@@H](Cc1ccccc1)C(=O)N[C@H](C(=O)N[C@@H](CC(N)=O)C(=O)N[C@@H](Cc1c[nH]c2ccccc12)C(=O)N[C@@H](CC(C)C)C(=O)N[C@@H](CC(C)C)C(=O)N[C@@H](C)C(=O)NCC(=O)NCC(=O)N1CCC[C@H]1C(=O)N[C@@H](CO)C(=O)N[C@@H](CO)C(=O)NCC(=O)N[C@@H](C)C(=O)N1CCC[C@H]1C(=O)N1CCC[C@H]1C(=O)N1CCC[C@H]1C(=O)N[C@@H](CO)C(=O)N[C@@H](CCC(=O)O)C(N)=O)C(C)C` [mt-396], in assay [1] (Table 4, read-out: GLP-1R EC50), the EC50 was 0.0093 nM. The GLP-1R relative activity in assay [1] (Table 4) is reported as 262.27%. Also, in assay [3], the EC50 is 0.0034 nM and the GIPR relative activity is listed as 402.69%. Moreover, in assay [4], the EC50 worked out at 2.9 nM and the GR relative activity is on record as 1.03%.

By EC50 is commonly meant the concentration that produces a half-maximal response. As usually defined, the IC50 is the point on the concentration scale where inhibition reaches its midpoint. Low values mean higher potency, high ones lower potency.
